From ChEMBL document CHEMBL3046700, “Identification of novel inhibitors of HIV-1 integrase using pharmacophore-based virtual screening combined with molecular docking strategies” (Med Chem Res, 2013) come the findings set out here.

Structures are written as SMILES.

The experiment deals with Human immunodeficiency virus type 1 integrase (Human immunodeficiency virus 1, UniProt Q7ZJM1). The experiment is described as follows: Inhibition of Human immunodeficiency virus 1 integrase strand transfer activity using [32P]5'end-labeled linear 21 mer as substrate incubated for 30 min prior to substrate addition measured after 1 hr.
Sequence of Human immunodeficiency virus type 1 integrase (Q7ZJM1 whole entry): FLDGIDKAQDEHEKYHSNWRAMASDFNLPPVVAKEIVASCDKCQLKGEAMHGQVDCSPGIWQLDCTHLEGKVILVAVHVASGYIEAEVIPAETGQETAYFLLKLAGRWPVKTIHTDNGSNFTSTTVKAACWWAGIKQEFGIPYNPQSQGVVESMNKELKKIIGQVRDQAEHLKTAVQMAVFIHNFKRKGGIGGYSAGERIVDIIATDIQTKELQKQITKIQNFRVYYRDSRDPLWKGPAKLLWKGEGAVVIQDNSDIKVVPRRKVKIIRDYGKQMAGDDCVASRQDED
Broadly, the IC50 is the midpoint of a concentration-inhibition curve. High values mean weaker potency in that assay, low ones greater potency in that assay. `NNS(=O)(=O)c1cccc(OCC(=O)O)c1` returned an IC50 of 8.7 µM. In other words, the single-digit micromolar range. `O=C1NC(=S)SC1NS(=O)(=O)c1ccc(/N=N/c2ncccn2)cc1` (stereo not given) returned an IC50 of 14.1 µM. For the compound `O=S(=O)(/C=C/c1ccc(O)c(O)c1O)CS(=O)(=O)/C=C/c1ccc(O)c(O)c1O`, the IC50 is 0.9 µM. Under `CC(C)c1nc(C(=O)NCc2ccc(F)cc2)c(O)c(=O)n1C` stands 0.14 µM. The compound `Cc1cc2c(cc1Cl)SC(C(=O)c1ccc(F)cc1)=NS2(=O)=O` returned an IC50 of 42 µM. Under `O=C(Oc1ccc(/C=C/S(=O)(=O)CS(=O)(=O)/C=C/c2ccc(OC(=O)c3ccccc3)c(OC(=O)c3ccccc3)c2)cc1OC(=O)c1ccccc1)c1ccccc1` stands 700 µM.

In turn, `Cc1cc2nc3nc(N)nc(NS(=O)(=O)c4cc(C)c(Cl)cc4S)n3c2cc1C` returned an IC50 of 7.41 µM.

Compound `Cc1cc(S(=O)(=O)Nc2nnc3c4scc(C)c4ncn23)c(S)cc1Cl` gave an IC50 of 4.26 µM. The value for `COc1ccc(C(=O)C2=NS(=O)(=O)c3cc(C)c(Cl)cc3S2)cc1` was 12 µM. Under `Cc1ccc(-n2ncnc2-c2nc3ccccc3nc2NS(=O)(=O)c2cc(C(=O)Nc3ccccc3)c(Cl)cc2S)cc1` stands 10 µM.
